Earlier results, collected in PubChem BioAssay AID1259409 (Chemical Carcinogenesis Research Information System (CCRIS), 2018).
Where “and” joins values, the source holds several entries; their conditions need not be identical. Equal values may be shown once.

Test system: rodent chemically induced tumor inhibition, incidence and multiplicity
Assay: CCRIS tumor inhibitor studies

S=C=NCCc1ccccc1
tumour outcome (control, treated, inhibition, significance) (Carcinogen: 4-(N-NITROSOMETHYLAMINO)-1-(3-PYRIDYL)-1-BUTANONE, 64091-91-4, Dose [Inhibitor]: 0, 3 UMOL/G/DIET BEGINNING 1 WK PRIOR TO CARCINOGEN TREATMENT AND CONTINUING FOR 21 WK (STUDY DURATION: 104 WK), Route [Inhibitor]: ORAL, Species: RAT, Strain/Sex: F344/MALE, Target Tissue: Type of Lesion: NASAL CAVITY: BENIGN TUMOR, Dose [Carcinogen]: 1.76 MG/KG 3/WK FOR 20 WK, Promoter: NONE USED): 8/40 (20%), 6/40 (15%), 25%, not calculated
tumour outcome (control, treated, inhibition, significance) (Carcinogen: 4-(N-NITROSOMETHYLAMINO)-1-(3-PYRIDYL)-1-BUTANONE, 64091-91-4, Dose [Inhibitor]: 0, 3 UMOL/G/DIET BEGINNING 1 WK PRIOR TO CARCINOGEN TREATMENT AND CONTINUING FOR 21 WK (STUDY DURATION: 104 WK), Route [Inhibitor]: ORAL, Species: RAT, Strain/Sex: F344/MALE, Target Tissue: Type of Lesion: NASAL CAVITY: SQUAMOUS-CELL CARCINOMA, Dose [Carcinogen]: 1.76 MG/KG 3/WK FOR 20 WK, Promoter: NONE USED): 3/40 (8%), 1/40 (3%), 63%, not calculated
tumour outcome (control, treated, inhibition, significance) (Carcinogen: 4-(N-NITROSOMETHYLAMINO)-1-(3-PYRIDYL)-1-BUTANONE, 64091-91-4, Dose [Inhibitor]: 0, 5 UMOL/D FOR 4 CONSECUTIVE DAYS (STUDY DURATION: 16.5 WK), Route [Inhibitor]: GAVAGE, Species: MOUSE, Strain/Sex: STRAIN-A/FEMALE, Target Tissue: Type of Lesion: LUNG: ADENOMA, Dose [Carcinogen]: 10 UMOL ONCE 2 HR POST LAST AGENT DOSE, Promoter: NONE USED): 100%, 89%, 11%, not calculated and 100%, 93%, 7%, not calculated
tumour outcome (control, treated, inhibition, significance) (Carcinogen: 4-(N-NITROSOMETHYLAMINO)-1-(3-PYRIDYL)-1-BUTANONE, 64091-91-4, Dose [Inhibitor]: 0, 25 UMOL/D FOR 4 CONSECUTIVE DAYS (STUDY DURATION: 16.5 WK), Route [Inhibitor]: GAVAGE, Species: MOUSE, Strain/Sex: STRAIN-A/FEMALE, Target Tissue: Type of Lesion: LUNG: ADENOMA, Dose [Carcinogen]: 10 UMOL ONCE 2 HR POST LAST AGENT DOSE, Promoter: NONE USED): 100%, 30%, 70%, p<0.01
tumour outcome (control, treated, inhibition, significance) (Carcinogen: 7,12-DIMETHYLBENZ[A]ANTHRACENE, 57-97-6, Dose [Inhibitor]: 0, 600 PPM IN DIET FOR DURATION OF STUDY BEGINNING 1 WK PRIOR TO CARCINOGEN DOSE (STUDY DURATION: 107 D), Route [Inhibitor]: ORAL, Species: RAT, Strain/Sex: SPRAGUE-DAWLEY/FEMALE, Target Tissue: Type of Lesion: MAMMARY GLAND: ADENOCARCINOMA, Dose [Carcinogen]: 12 MG ONCE, Promoter: NONE USED): 70%, 85%, -21%, not significant
tumour outcome (control, treated, inhibition, significance) (Carcinogen: 7,12-DIMETHYLBENZ[A]ANTHRACENE, 57-97-6, Dose [Inhibitor]: 0, 1200 PPM IN DIET FOR DURATION OF STUDY BEGINNING 1 WK PRIOR TO CARCINOGEN DOSE (STUDY DURATION: 107 D), Route [Inhibitor]: ORAL, Species: RAT, Strain/Sex: SPRAGUE-DAWLEY/FEMALE, Target Tissue: Type of Lesion: MAMMARY GLAND: ADENOCARCINOMA, Dose [Carcinogen]: 12 MG ONCE, Promoter: NONE USED): 70%, 75%, -7%, not significant
tumour outcome (control, treated, inhibition, significance) (Carcinogen: 7,12-DIMETHYLBENZ[A]ANTHRACENE, 57-97-6, Dose [Inhibitor]: 5.5 MG/G DIET AT AGE 9 WK SIMULTANEOUSLY WITH CARCINOGEN 3/WK FOR 4 WK (STUDY DURATION: 20 WK), Route [Inhibitor]: ORAL, Species: MOUSE, Strain/Sex: ICR/FEMALE, Target Tissue: Type of Lesion: FORESTOMACH: TUMOR, Dose [Carcinogen]: 0.05 MG/G DIET AT AGE 9 WK 3/WK FOR 4 WK, Promoter: NONE USED): 93%, 12%, 87%, p<0.001
tumour outcome (control, treated, inhibition, significance) (Carcinogen: 7,12-DIMETHYLBENZ[A]ANTHRACENE, 57-97-6, Dose [Inhibitor]: 5.5 MG/G DIET AT AGE 9 WK SIMULTANEOUSLY WITH CARCINOGEN 3/WK FOR 4 WK (STUDY DURATION: 20 WK), Route [Inhibitor]: ORAL, Species: MOUSE, Strain/Sex: ICR/FEMALE, Target Tissue: Type of Lesion: LUNG: ADENOMA, Dose [Carcinogen]: 0.05 MG/G DIET AT AGE 9 WK 3/WK FOR 4 WK, Promoter: NONE USED): 100%, 89%, 11%, not significant
tumour outcome (control, treated, inhibition, significance) (Carcinogen: 7,12-DIMETHYLBENZ[A]ANTHRACENE, 57-97-6, Dose [Inhibitor]: 55 MG ONCE 4 HR BEFORE DMBA TREATMENT (STUDY DURATION: 18 WK), Route [Inhibitor]: INTRAGASTRIC, Species: RAT, Strain/Sex: SPRAGUE-DAWLEY/FEMALE, Target Tissue: Type of Lesion: MAMMARY GLAND: TUMOR, Dose [Carcinogen]: 12 MG IN 1 ML OLIVE OIL AT AGE 7 WK, Promoter: NONE USED): 100%, 43%, 57%, p<0.001
tumour outcome (control, treated, inhibition, significance) (Carcinogen: BENZO[A]PYRENE [50-32-8], Dose [Inhibitor]: 0.3 UMOL/G IN DIET FOR 10 WK BEGINNING 1 WK PRIOR TO FIRST CARCINOGEN DOSE (STUDY DURATION: 28 WK), Route [Inhibitor]: ORAL, Species: MOUSE, Strain/Sex: A/J/FEMALE, Target Tissue: Type of Lesion: LUNG: TUMOR, Dose [Carcinogen]: 3 UMOL IN 0.1 ML COTTONSEED OIL 1X/WK FOR 8 WK (STUDY DURATION: 28 WK), Promoter: NONE): 100%, 100%, 0%, not calculated
tumour outcome (control, treated, inhibition, significance) (Carcinogen: BENZO[A]PYRENE [50-32-8], Dose [Inhibitor]: 1 UMOL/G IN DIET FOR 10 WK BEGINNING 1 WK PRIOR TO FIRST CARCINOGEN DOSE (STUDY DURATION: 28 WK), Route [Inhibitor]: ORAL, Species: MOUSE, Strain/Sex: A/J/FEMALE, Target Tissue: Type of Lesion: LUNG: TUMOR, Dose [Carcinogen]: 3 UMOL IN 0.1 ML COTTONSEED OIL 1X/WK FOR 8 WK (STUDY DURATION: 28 WK), Promoter: NONE): 100%, 100%, 0%, not calculated
tumour outcome (control, treated, inhibition, significance) (Carcinogen: BENZO[A]PYRENE [50-32-8], Dose [Inhibitor]: 3 UMOL/G IN DIET FOR 10 WK BEGINNING 1 WK PRIOR TO FIRST CARCINOGEN DOSE (STUDY DURATION: 28 WK), Route [Inhibitor]: ORAL, Species: MOUSE, Strain/Sex: A/J/FEMALE, Target Tissue: Type of Lesion: LUNG: TUMOR, Dose [Carcinogen]: 3 UMOL IN 0.1 ML COTTONSEED OIL 1X/WK FOR 8 WK (STUDY DURATION: 28 WK), Promoter: NONE): 100%, 100%, 0%, not calculated
outcome (Carcinogen: BENZO[A]PYRENE, 50-32-8, Dose [Inhibitor]: 0, 5 UMOL IN ACETONE 4 HR PRIOR TO CARCINOGEN DOSE (STUDY DURATION: 20 WK), Route [Inhibitor]: DERMAL, Species: MOUSE, Strain/Sex: STRAIN-A/FEMALE, Target Tissue: Type of Lesion: SKIN: TUMOR, Dose [Carcinogen]: 0.1 UMOL IN ACETONE ONCE, Promoter: 12-O-TETRADECANOYLPHORBOL-13-ACETATE, 16561-29-8): 70%, 65%, 7%, not significant at 15 wk; 95%, 85%, 11%, not significant at 20 wk
tumour outcome (control, treated, inhibition, significance) (Carcinogen: BENZO[A]PYRENE, 50-32-8, Dose [Inhibitor]: 0, 6.7 UMOL IN COTTONSEED OIL 15 MIN PRIOR TO CARCINOGEN DOSES 1/2 WK FOR 3 TREATMENTS (STUDY DURATION: 26 WK), Route [Inhibitor]: GAVAGE, Species: MOUSE, Strain/Sex: STRAIN-A/FEMALE, Target Tissue: Type of Lesion: FORESTOMACH: TUMOR, Dose [Carcinogen]: 7.9 UMOL IN COTTONSEED OIL 1/2 WK FOR 3 TREATMENTS, Promoter: NONE USED): 95%, 90%, 5%, not significant
tumour outcome (control, treated, inhibition, significance) (Carcinogen: BENZO[A]PYRENE, 50-32-8, Dose [Inhibitor]: 0, 6.7 UMOL IN COTTONSEED OIL 15 MIN PRIOR TO CARCINOGEN DOSES 1/2 WK FOR 3 TREATMENTS (STUDY DURATION: 26 WK), Route [Inhibitor]: GAVAGE, Species: MOUSE, Strain/Sex: STRAIN-A/FEMALE, Target Tissue: Type of Lesion: LUNG: TUMOR, Dose [Carcinogen]: 7.9 UMOL IN COTTONSEED OIL 1/2 WK FOR 3 TREATMENTS, Promoter: NONE USED): 95%, 90%, 5%, not significant
